Data on 21 compounds can be found in PMC11541488, “Targeting the Plasmodium falciparum IspE Enzyme” (ACS Omega, 2024).

SMILES strings stand for the structures. Where two headings read alike, the source gives them in different places.

For one assay, the system named is Ec IspE. The conditions noted are these: cited from earlier work.
In assay [1] the target is T1, PfIspE (Plasmodium falciparum, UniProt Q8I470). The assay can be described thus: Biochemical IspE assay (PK/LDH-coupled, NADH oxidation at 340 nm). From the text: (§1) Here, we initiated a high-throughput screening (HTS) campaign on the PfIspE protein (Section S1 in the Supporting Information). The HTS was based on a proprietary library of 100 000 compounds from the BASF company and used the inhibitory potency of the compound against the IspE protein as the readout. The IC50 from the IspE assay was also a key parameter for our chemical optimization study. Therefore, it is important to note that the activity of the target enzyme in the IspE assay is coupled to the oxidation of NADH (which is followed spectrophotometrically at 340 nm) via a cascade of the auxiliary enzymes pyruvate kinase and lactate dehydrogenase (PK/LDH, Section S2 in the Supporting Information). Accordingly, to confirm that the effects observed in the IspE assay are due to inhibition of the target enzyme rather than the auxiliary enzymes, it is crucial to maintain a difference between the PK/LDH and IspE enzymatic activities. Furthermore, as we have previously reported, the biological testing of this chemical class requires careful handling such as storage of the compounds at −20 °C.[19] Based on what has been reported in the literature, a risk-mitigation strategy involves adding a substituent to the C-5 position of the thiazole ring,[20] which we have adhered to in this SAR exploration. […]
T1 sequence (Q8I470 entry or part of it): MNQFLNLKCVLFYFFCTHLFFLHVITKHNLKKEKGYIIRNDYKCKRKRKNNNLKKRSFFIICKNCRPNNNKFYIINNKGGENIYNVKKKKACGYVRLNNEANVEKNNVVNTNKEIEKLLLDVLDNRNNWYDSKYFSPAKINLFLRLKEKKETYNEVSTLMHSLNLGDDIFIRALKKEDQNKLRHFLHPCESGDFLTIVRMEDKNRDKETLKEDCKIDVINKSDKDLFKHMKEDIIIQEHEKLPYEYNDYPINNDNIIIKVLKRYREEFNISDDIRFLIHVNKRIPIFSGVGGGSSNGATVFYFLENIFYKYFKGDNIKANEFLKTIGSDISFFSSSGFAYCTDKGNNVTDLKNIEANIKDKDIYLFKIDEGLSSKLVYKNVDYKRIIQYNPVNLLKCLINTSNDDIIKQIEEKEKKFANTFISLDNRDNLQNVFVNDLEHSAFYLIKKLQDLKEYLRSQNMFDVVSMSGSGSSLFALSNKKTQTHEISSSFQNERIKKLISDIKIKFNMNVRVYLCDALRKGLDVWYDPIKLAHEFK
(§2) kBar. The lysate was then centrifuged at 15000 rpm for 80 minutes at 4 °C to remove cell debris, and the supernatant was collected.
(§3) 1.2. Protein Purification
(§4) The supernatant containing the target protein was applied to a Ni-chelating Sepharose column (1 cm x 20 cm) that had been equilibrated with the lysis buffer containing 15 mM imidazole. The column was washed with the same buffer supplemented with 15 mM imidazole until the OD280 reached the baseline. The bound proteins were then eluted from the column using a gradient of imidazole ranging from 15 mM to 600 mM, collected in a volume of 100 mL.
(§5) If further purification was required, size exclusion chromatography was performed using a Superdex200 (GE, 2 cm x 60 cm) column. The column was equilibrated with the lysis buffer without imidazole. The eluted IspE fractions from the previous chromatography step were directly applied to the top of the Superdex200 column.
(§6) The purity and integrity of the purified PfIspE protein were assessed using SDS-PAGE.
(§7) The molecular weight of the protein was estimated by comparison with standard protein markers. The concentration of the purified protein was determined using a NanoDrop.
(§8) The purified PfIspE protein was aliquoted and stored at - 80 °C until further use.
(§9) (Note: All procedures were performed at 4 °C unless otherwise specified ).
(§10) 2.0 Biochemical IspE assay
(§11) Escherichia coli IspE[1] and Plasmodium falciparum IspE[2] for IspE assays was expressed, isolated and purified as previously described. All other enzymes and chemicals used in the assays were purchased from Sigma-Aldrich (Taufkirchen, […]
For testing of compounds in the IspE assay, CDP-ME (0.2 mM) in 100 mM Tris-HCl, pH 7.6, 0.02% NaN3 (30 µL) was added to a well of the 384-well microplate, preloaded either with DMSO or with test compound dissolved in DMSO (3 µL). The reaction was started by addition of 100 mM Tris-HCl, pH 7.6, 10 mM MgCl2, 60 mM KCl, 10 mM dithiothreitol, 0.02% NaN3, 1 mM NADH, 2 mM phosphoenolpyruvate, 2 mM ATP, […]
pyruvate kinase (1 U mL–1), lactate dehydrogenase (1 U mL–1) and E. coli IspE (0.05 U mL–1) (27 µL per microplate well).
IC50 values were measured at CDP-ME concentration 100 µM. […]
For both kinds of assays the OD values in the microplate wells were monitored photometrically at 340 nm (room temperature) for 30 to 90 min in a plate reader (SpectraMax5, […], USA). Initial rate values were evaluated with a nonlinear regression method using the program Dynafit.[3]
Figure S1 : IC50 curve of compound 19.
(1 picture or pasted object on this page, not shown here)

Assay [2] has as its target PK-LDH (pyruvate kinase/lactate dehydrogenase). Nature of the assay: Pyruvate kinase assay (auxiliary enzymes PK/LDH). It counts as biochemical. As to conditions: determined for PfIspE IC50 < 100 μM.
From the text: as §1, with “°C.[19]” for “°C.[19] Based on what has been reported in the literature, a risk-mitigation strategy involves adding a substituent to the C-5 position of the thiazole ring,[20] which we have adhered to in this SAR exploration.”
(§12) For both kinds of assays the OD values in the microplate wells were monitored photometrically at 340 nm (room temperature) for 30 to 90 min in a plate reader (SpectraMax5, […], USA). Initial rate values were evaluated with a nonlinear regression method using the program Dynafit.[3] […]

For assay [3], the target named is T2, EcIspE (Escherichia coli, UniProt P62615).
T2 construct: made in house
T2 sequence (P62615 whole entry): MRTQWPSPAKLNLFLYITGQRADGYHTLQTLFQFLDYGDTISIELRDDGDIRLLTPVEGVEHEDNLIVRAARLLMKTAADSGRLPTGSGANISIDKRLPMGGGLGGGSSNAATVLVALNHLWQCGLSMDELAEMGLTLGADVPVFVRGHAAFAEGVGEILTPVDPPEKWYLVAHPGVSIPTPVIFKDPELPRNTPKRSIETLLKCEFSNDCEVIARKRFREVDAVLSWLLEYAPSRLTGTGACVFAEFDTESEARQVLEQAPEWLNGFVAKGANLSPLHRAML
The assay can be described thus: Analytical SDS-PAGE, photoprobe labelling and competition of probe 23 with compound 19. As to conditions: for Probe binding to IspE (SDS-PAGE): probe 10 µM, native protein. Type of assay: binding.

Assay [4] deals with T1, PfIspE. Described as above. It counts as binding. As to conditions: for Probe binding to IspE (SDS-PAGE): probe 10 µM, native protein.
The next assay relates to PfNF54. Nature of the assay: [3H]-hypoxanthine incorporation assay, asexual blood stage parasites. It counts as cell-based. As to conditions: Plasmodium falciparum. The protocol: However, direct comparison of the two assays is extremely difficult. Consequently, it is essential to note that the existence of additional target proteins within P. falciparum at this stage is neither confirmed nor ruled out. […]
the compound activity against P. falciparum NF54 asynchronous parasites, the [3H]- hypoxanthine incorporation assay was used as described.[4] Compounds dissolved in DMSO (10 mg/mL) are diluted in hypoxanthine - free culture media and was titrated in duplicates over a 64-fold range in 96 well plates. Parasite culture diluted to 0.3% parasitemia with 1.25% final haematocrit with hypoxantine-free medium was added at 100 µL to each well. Following a 48 h incubation, […] [3H]-hypoxanthine was added per well. Plates are incubated for another 24 h. Radioactivity was then measured using MicroBeta2 liquid scintillation counter (Perkin Elmer, Waltham, US) following parasite harvesting onto Microbeta FilterMate cell harvester (Perkin, Elmer, Waltham, US). The fifty percent inhibitory concentration (IC50) was then calculated by linear interpolation as described.[5]
For the background lysate, HEK293 cells (passage 27) were grown to 90% confluency in Dulbecco´s Modified Eagle´s Medium (DMEM high glucose, Sigma) supplemented with 2 mM L-glutamine and 10% (v/v) heat-inactivated fetal calf serum (FCS) in T-175 cell culture flasks. Lysis was performed using HEPES buffer (pH 7.5 , Roth) containing 1% Nonidet P 40 alternative (NP-40), 0.4% sodium dodecyl sulfate (SDS, Roth) and 1% sodium deoxycholate (Roth). The lysate was gently sonicated three times for 10 s on a Bandelin Sonoplus HD2070 at 10% amplitude. The lysate was cleared by centrifugation at 16.000 x g for 10 min. The protein content of the supernatant was determined using a BCA assay (ROTIQuant, Roth) according to the suppliers specifications and adjusted to 5 µg/µL to yield the stock solutions used in the […]
7.2 Reaction with probe 23
The protein samples were prepared to result in 50 µg lysate protein per lane and/or 10 µg of the respective recombinant protein (see section 1 of this SI). […]

Assay [5] addresses T2, EcIspE. Nature of the assay: Biochemical IspE assay (PK/LDH-coupled). The conditions noted are these: Table S1; read-out: Inhibitory potency on EcIspE. The protocol: as §2, §3, §4, §5, §6, §7, §8, §9, §10, §11, §12
Where [6] appears, read: CDP-ME concentration 100 µM, read-out: IC50 PfIspE.
Setting [7] is: competitor 19 in 15 times excess.
Where [8] appears, read: compound 19 in 15 times excess to probe 23 (10 µM).
Setting [9] is: parasite growth, 72 h total incubation, read-out: IC50 PfNF54.

On to `Nc1nc(=O)n(C2CCCS2)cc1C#CCNS(=O)(=O)C1CC1` (stereo not shown) [Compound 1], for which the IC50 in the assay with Ec IspE was 8 ± 0.1 µM.
For `CCOC(=O)CC1(n2cc(C#CCNS(=O)(=O)C3CC3)c(N)nc2=O)COC1` [Compound 1a], the IC50 in the assay on Ec IspE is 590 ± 10 µM.
For `NCCC(=O)Nc1ccc(I)cc1Oc1cc(Cl)cc(Cl)c1` [Compound 2], in the assay on Ec IspE, the IC50 was 63 ± 15 µM.
For `Oc1csc(Nc2nccs2)n1` [Compound 7], the IC50 in the assay on Ec IspE was 160 ± 0.9 µM.
For `C1=C(c2c[nH]c3ncccc23)CCNC1` [Compound 8], the IC50 in the assay with Ec IspE was 1500 ± 300 µM.
In the case of `CCn1c(C)cc(-c2csc(Nc3cccc(C(F)(F)F)c3)n2)c1C` [Compound 9], the IC50 on PfIspE [1] (setting [6]) was determined as 405 ± 114 µM.
The same measure, in the same setting: as for `CCn1c(C)cc(-c2csc(Nc3ccccc3C(F)(F)F)n2)c1C` [Compound 10], the figure is greater than 500 µM; as for `CCn1c(C)cc(-c2csc(Nc3ccc(C(F)(F)F)cc3)n2)c1C` [Compound 11], 128 ± 23 µM; as for `CCn1c(C)cc(-c2csc(Nc3ccccc3)n2)c1C` [Compound 12], greater than 500 µM.
Regarding `CCn1c(C)cc(-c2csc(Nc3ccc(N(C)C)cc3)n2)c1C` [Compound 13], on PfIspE [1] (setting [6]), the IC50 is greater than 500 µM.
Same read-out and setting: as for `CCn1c(C)cc(-c2csc(Nc3ccc(OC)cc3)n2)c1C` [Compound 14], the figure is greater than 500 µM; as for `CCn1c(C)cc(-c2csc(Nc3ccc(Cl)cc3)n2)c1C` [Compound 15], 111 ± 34 µM; as for `CCn1c(C)cc(-c2csc(Nc3ccc(Cl)nc3)n2)c1C` [Compound 16], 216 ± 53 µM.
For `CCn1c(C)cc(-c2csc(Nc3cc(Cl)cc(Cl)c3)n2)c1C` [Compound 17], the IC50 on PfIspE [1] (setting [6]) turned out to be 143 ± 24 µM.
With `CCn1c(C)cc(-c2csc(Nc3ccc(CN)cc3)n2)c1C` [Compound 18], the IC50 is greater than 500 µM in assay [2] and 86 ± 44 µM at PfIspE [1].
Take `CCn1c(C)cc(-c2csc(Nc3ccc4[nH]cnc4c3)n2)c1C` [Compound 19]: the “Reduction in fluorescence of probe 23 label” value at EcIspE [3] (setting [7]) stood at 63%; on PfIspE [4] (setting [7]) it was 48%. The “Relative fluorescence of probe 23 label remaining” value is “about 37%” on EcIspE [3] (setting [8]) and roughly 52% on PfIspE [4] (setting [8]). The IC50 in assay [2] was greater than 500 µM; in the assay on PfNF54 (corresponding to 0.82 μg/mL, read-out: IC50 PfNF54 converted to molar) it was roughly 2400 nM; in the assay with PfNF54 (setting [9]), 0.82 ± 0.01 µg/mL; on PfIspE [1] (setting [6]), 53 ± 19 µM. The “Boost in IspE inhibitory potency compared to initial hit 9” value on PfIspE [1] stood at 8 fold.
`CCn1c(C)cc(-c2csc(Nc3ccc4[nH]ncc4c3)n2)c1C` [Compound 20]: the IC50 on PfIspE [1] (setting [6]) came out at 121 ± 17 µM.
As for `C#CCn1c(C)cc(-c2csc(Nc3cccc(CC(F)(F)F)c3)n2)c1C` [Compound 21], the values for the IC50 on EcIspE [5] and on PfIspE [1] (setting [6]) were greater than 500 µM and 286 ± 55 µM, respectively.
Taken in the same sequence, the figures for `C#CCn1c(C)cc(-c2csc(Nc3ccc(CC(F)(F)F)cc3)n2)c1C` [Compound 22] were 31 ± 13 µM and 192 ± 21 µM.
Consider `C#CCn1c(C)cc(-c2csc(Nc3ccc(C4(C(F)(F)F)N=N4)cc3)n2)c1C` [Compound 23], for which the IC50 at EcIspE [5] turned out to be 77 ± 16 µM; with PfNF54 (setting [9]), 9.8 ± 2.9 µg/mL; at PfIspE [1] (setting [6]), 145 ± 42 µM. For the same compound, the “Probe binding to IspE (SDS-PAGE)” value on EcIspE [3] and on PfIspE [4] was “high affinity” throughout.
For the compound `C#CCCC1(CC(=O)Nc2ccccc2)N=N1` [Compound 24, reference compound], the “Probe binding to IspE (SDS-PAGE)” value on EcIspE [3] and on PfIspE [4] was “does not show the same binding profile” throughout.
